Laboratory results published in patent US7803930B2, “Antisense modulation of apolipoprotein B-expression” (Isis Pharmaceuticals, Inc., priority 2002, dated 2010).
In the oligonucleotide strings, read from the 5' end, every base follows the letter of its sugar. An asterisk marks phosphorothioate; unmarked linkages are phosphodiester. Other units and linkages are bracketed, terminal groups are in braces. A string of capitals states the bases alone. e = 2'-O-(2-methoxyethyl) (MOE); [5mC] = 5-methylcytosine; d = 2'-deoxy (DNA)

Tests used:
Type in all cases: cell-based
[1] = test system: human apolipoprotein B mRNA; test: Inhibition of human apolipoprotein B mRNA levels in HepG2 cells, quantitative real-time PCR; details: for % INHIB (inhibition of human apolipoprotein B mRNA levels): HepG2 cells treated with 150 nM of compound, averages from two experiments, quantitative real-time PCR; for % inhibition 37 nM / % inhibition 75 nM / % inhibition 150 nM / % inhibition 300 nM: Table 19 dose response, HepG2 cells, normalized to untreated control
Procedure, shortened: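 Apolipoprotein B transcript was quantified by one-step TaqMan RT-PCR, normalized to GAPDH or RiboGreen RNA, and expressed as percent inhibition against an untreated-sample standard curve. HepG2 cells were harvested 16-24 h after oligonucleotide exposure, which was delivered with 3.75 μg/mL Lipofectin over 4-7 h at 80% confluency.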

[2] = test system: human apolipoprotein B mRNA; test: Inhibition of apolipoprotein B mRNA by dsRNAs in HepG2 cells; details: 150 nM with 3.75 μg/mL LIPOFECTIN
Procedure: In accordance with the present invention, a series of nucleic acid duplexes comprising the antisense compounds of the present invention and their complements were designed to target apolipoprotein B and are shown in Table 42. All compounds in Table 42 are oligoribonucleotides 20 nucleotides in length with phosphodiester internucleoside linkages (backbones) throughout the compound. The compounds were prepared with blunt ends. […] These sequences are shown to contain uracil (U) but one of skill in the art will appreciate that uracil (U) is generally replaced by thymine (T) in DNA sequences. “Targer site” indicates the first (5′-most) nucleotide number on the particular target sequence to which the compound binds. A subset of the compounds in Table 42 are the RNA equivalents of DNA antisense oligonucleotides described herein, and, where applicable, this is noted by the ISIS # of the DNA oligonucleotide in the column “RNA equivalent of ISIS #”.
The dsRNA compounds in Table 42 were tested for their effects on human apolipoprotein mRNA in HepG2 cells. HepG2 cells were treated with 100 nM of dsRNA compounds mixed with 5 μg/mL LIPOFECTIN (Invitrogen Corporation, Carlsbad, Calif.) for a period of 16 hours. In the same experiment, HepG2 cells were also treated with 150 nM of subset of the antisense oligonucleotides described herein mixed with 3.75 μg/mL LIPOFECTIN; these compounds are listed in Table 43. Control oligonucleotides included ISIS 18078 ([…], SEQ ID NO: 888). ISIS 18078 is a chimeric oligonucleotide (“gapmer”) 20 nucleotides in length, composed of a central “gap” region consisting of 9 2′-deoxynucleotides, which is flanked on the 5′ and 3′ ends by a five-nucleotide “wing” and a six-nucleotide “wing”, respectively. The wings are composed of 2′-methoxyethyl (2′-MOE)nucleotides. The internucleoside (backbone) linkages are phosphorothioate (P═S) throughout the oligonucleotide. All cytidines are 5-methylcytidines. The duplex of ISIS 263188 ([…], SEQ ID NO: 889) and its complement was also used as a control. ISIS 263188 is an oligoribonucleotide 21 nucleotides in length with the 2 nucleotides on the 3′ end being oligodeoxyribonucleotides (TT) and with phosphodiester internucleoside linkages (backbones) throughout the compound.
Cells were treated for 4 hours, after which human apolipoprotein B mRNA expression was measured as described by examples herein. Results were normalized to untreated control cells, which were not treated with LIPOFECTIN or oligonucleotide.

lipoprotein(a) = test: Lipoprotein(a) particle secretion from primary human hepatocytes, ELISA; details: 150 nM, 24 hours
Procedure: Primary human hepatocytes (InVitro Technologies, Baltimore, Md.), cultured and transfected as described herein, were treated for 24 hours with 50 or 150 nM of ISIS 271009 (SEQ ID NO: 319), 281625 (SEQ ID NO: 224), 301012 (SEQ ID NO: 247) or 301027 (SEQ ID NO: 262). Cells were also treated with 150 nM of the control oligonucleotides ISIS 113529 (SEQ ID NO: 859) or ISIS 13650 (SEQ ID NO: 806). Untreated cells served as a control. Following 24 hours of oligonucleotide treatment, the amount of lipoprotein(a) in the culture medium collected from the treated cells was measured using a commercially available ELISA kit (ALerCHEK Inc., Portland, Me.). The results are the average of three experiments and are expressed as percent change in lipoprotein(a) secretion relative to untreated controls.

apolipoprotein B protein = test: Apolipoprotein B protein secreted from primary Cynomolgous monkey hepatocytes, ELISA; details: primary Cynomolgous hepatocytes
Procedure: Apolipoprotein B protein secreted from primary Cynomolgous hepatocytes treated with 150 and 300 nM of oligonucleotide was measured by ELISA using an apolipoprotein B protein specific kit (ALerCHEK Inc., Portland, Me.). Each result represents the average of 3 experiments.
Apolipoprotein B protein secreted primary Cynomolgous hepatocytes treated with 50 and 150 nM of ISIS 315089 and ISIS 281625 was measured by ELISA using an apolipoprotein B protein specific kit (ALerCHEK Inc., Portland, Me.). Each result represents the average of 3 experiments.
Apolipoprotein B protein secreted from primary Cynomolgous hepatocytes treated with 50 and 150 nM of ISIS 271009 and ISIS 301027 was measured by ELISA using an apolipoprotein B protein specific kit (ALerCHEK Inc., Portland, Me.). Each result represents the average of 3 experiments.

[3] = test system: Cynomolgous monkey apolipoprotein B mRNA; test: Apolipoprotein B mRNA in primary Cynomolgous monkey hepatocytes, real-time PCR; details: primary Cynomolgous monkey hepatocytes, 24 hours (Table 46)
Procedure: Antisense inhibition by ISIS 301012 was compared to that of ISIS 326358, which is a perfect match to the Cynomolgous monkey apolipoprotein B sequence to which ISIS 301012 hybridizes. The compounds were analyzed for their effect on Cynomolgous monkey apolipoprotein B mRNA levels in primary Cynomolgous monkey hepatocytes purchased from In Vitro Technologies ([…].). Pre-plated primary Cynonomolgous monkey hepatocytes were purchased from InVitro Technologies (Baltimore, Md.). Cells were cultured in high-glucose DMEM (Invitrogen Corporation, Carlsbad, Calif.) supplemented with 10% fetal bovine serum (Invitrogen Corporation, Carlsbad, Calif.), 100 units/mL and 100 μg/mL streptomycin (Invitrogen Corporation, Carlsbad, Calif.).
Primary Cynomolgous monkey hepatocytes were treated with 10, 50, 150 or 300 nM of antisense oligonucleotides for 48 hours. ISIS 113529 (SEQ ID NO: 859) was used as a control oligonucleotide. Untreated cells also served as a control. Cynomolgous monkey apolipoprotein B mRNA levels were quantitated by real-time PCR using the human apolipoprotein B and GAPDH primers and probes described by other examples herein. The results, shown in Table 44, are the average of 6 experiments and are expressed as percent inhibition of apolipoprotein B mRNA normalized to untreated control cells.
In a further embodiment of the invention, antisense inhibition by ISIS 281625 was compared to that by ISIS 315089, which is a perfect match to the Cynomolgous monkey apolipoprotein B sequence to which ISIS 281625 hybridizes. Primary Cynomolgous monkey hepatocytes, cultured as described herein, were treated with 10, 50, 150 or 300 nM of ISIS 315089 or ISIS 281625 for 24 hours. Cells were treated with the control oligonucleotide ISIS 13650 (SEQ ID NO: 806) at 150 and 300 nM or ISIS 113529 (SEQ ID NO: 859) at 300 nM. Untreated cells also served as a control. Cynomolgous monkey apolipoprotein B mRNA levels in primary Cynomolgous monkey hepatocytes was quantitated using real-time PCR with human primers and probe as described by other examples herein. The results, shown in Table 46, are the average of 3 experiments and are expressed as percent inhibition of apolipoprotein B mRNA normalized to untreated control cells.
ISIS 271009 (SEQ ID NO: 319) and ISIS 301027 (SEQ ID NO: 262) were also tested for their effects on apolipoprotein B mRNA and protein expression in Cynomolgous primary hepatoctyes. Cells, cultured as described herein, were treated with 10, 50 and 150 nM of ISIS 271009 or ISIS 301027 for 24 hours. Cells were treated with the control oligonucleotide ISIS 113529 (SEQ ID NO: 859) at 150 nM. Untreated cells also served as a control. Cynomolgous monkey apolipoprotein B mRNA levels in primary Cynomolgous monkey hepatocytes was quantitated using real-time PCR with human primers and probe as described by other examples herein. The results, shown in Table 48, are the average of 2 experiments and are expressed as percent inhibition of apolipoprotein B mRNA normalized to untreated control cells.

[4] = test system: human apolipoprotein(a) mRNA; test: Apolipoprotein(a) mRNA expression in primary human hepatocytes, real-time PCR; details: primary human hepatocytes, 24 hours
Procedure: Primary human hepatocytes (InVitro Technologies, Baltimore, Md.), cultured and transfected as described herein, were treated with 5, 10, 50 or 150 nM of ISIS 271009 (SEQ ID NO: 319), 281625 (SEQ ID NO: 224), 301012 (SEQ ID NO: 247) or 301027 (SEQ ID NO: 262). Cells were also treated with 50 or 150 nM of the control oligonucleotides ISIS 113529 (SEQ ID NO: 859) or ISIS 13650 (SEQ ID NO: 806). Untreated cells served as a control. Following 24 hours of oligonucleotide treatment, apolipoprotein(a) mRNA expression was measured by quantitative real-time PCR as described in other examples herein.
Probes and primers to human apolipoprotein(a) were designed to hybridize to a human apolipoprotein(a) sequence, using published sequence information (GenBank accession number NM_005577.1, incorporated herein as SEQ ID NO: 860). For human apolipoprotein(a) the PCR primers were: […]
forward primer: […] (SEQ ID NO: 861)
reverse primer: TGCGTCTGAGCATTGCGT (SEQ ID NO: 862) and the PCR probe was: FAM-[…]-TAMRA (SEQ ID NO: 863) where FAM is the fluorescent dye and TAMRA is the quencher dye.
Data are the average of three experiments and are expressed as percent inhibition relative to untreated controls.

Question: “301029 (eG*eG*e[5mC]*eT*eG*dG*d[5mC]*dT*d[5mC]*dA*d[5mC]*dT*dG*dT*dA*eT*eG*eG*eT*eT; antisense) [compound 301029]” was tested. Which “% INHIB (inhibition of human apolipoprotein B mRNA levels)” value [1] did it give?
Answer: 90%

Question: And the “% inhibition 37 nM” value [1]?
Answer: 54%

Question: And the “% inhibition 75 nM” value [1]?
Answer: 67%

Question: What about the “% inhibition 150 nM” value [1] of the same substance?
Answer: 79%

Question: And the “% inhibition 300 nM” value [1]?
Answer: 85%

Question: What about the “% Inhibition of apolipoprotein B mRNA” value [2] of the same substance?
Answer: 77%

Question: What does the source list for “13650 (TCCCGCCTGTGACATGCATT; listed as DNA, chemistry not given here) [compound 13650]”?
Answer: % Change in lipoprotein(a) secretion (lipoprotein(a)): +14%; % Reduction of monkey apolipoprotein B protein secretion (apolipoprotein B protein; 50 nM (Table 47)): 16%; % Reduction of monkey apolipoprotein B protein secretion (apolipoprotein B protein; 150 nM (Table 47)): 13%; % Reduction of monkey apolipoprotein B protein secretion (apolipoprotein B protein; 150 nM (Table 49), "+" = secretion increased): +1%; % Inhibition of apolipoprotein B mRNA ([3]; 150 nM, "+" = expression increased): +50%; % Inhibition of apolipoprotein B mRNA ([3]; 300 nM): 33%; % Change in apolipoprotein(a) mRNA expression following antisense inhibition of apolipoprotein B ([4]; 50 nM): −68%; % Change in apolipoprotein(a) mRNA expression following antisense inhibition of apolipoprotein B ([4]; 150 nM): −37%

Question: Which “% INHIB (inhibition of human apolipoprotein B mRNA levels)” value [1] does the source give for “301031 (eA*eA*eG*eG*e[5mC]*dT*dG*dG*d[5mC]*dT*d[5mC]*dA*d[5mC]*dT*dG*eT*eA*eT*eG*eG; antisense) [compound 301031]” here?
Answer: 90%

Question: What about the “% inhibition 37 nM” value [1] of the same substance?
Answer: 61%

Question: And the “% inhibition 75 nM” value [1]?
Answer: 82%

Question: What about the “% inhibition 150 nM” value [1] of the same substance?
Answer: 92%

Question: And the “% inhibition 300 nM” value [1]?
Answer: 96%

Question: And the “% Inhibition of apolipoprotein B mRNA” value [2]?
Answer: 73%

Question: “301014 (e[5mC]*eA*eG*e[5mC]*e[5mC]*d[5mC]*d[5mC]*dG*d[5mC]*dA*dG*dG*dT*d[5mC]*d[5mC]*e[5mC]*eG*eG*eT*eG; antisense) [compound 301014]” was tested. Which “% INHIB (inhibition of human apolipoprotein B mRNA levels)” value [1] did it give?
Answer: 88%

Question: And the “% inhibition 37 nM” value [1]?
Answer: 75%

Question: And the “% inhibition 75 nM” value [1]?
Answer: 90%

Question: What about the “% inhibition 150 nM” value [1] of the same substance?
Answer: 96%

Question: And the “% inhibition 300 nM” value [1]?
Answer: 98%

Question: And the “% Inhibition of apolipoprotein B mRNA” value [2]?
Answer: 88%

Question: With “301030 (eA*eG*eG*e[5mC]*eT*dG*dG*d[5mC]*dT*d[5mC]*dA*d[5mC]*dT*dG*dT*eA*eT*eG*eG*eT; antisense) [compound 301030]” as the substance, how does the “% INHIB (inhibition of human apolipoprotein B mRNA levels)” value [1] read?
Answer: 90%

Question: And the “% inhibition 37 nM” value [1]?
Answer: 64%

Question: What about the “% inhibition 75 nM” value [1] of the same substance?
Answer: 75%

Question: What about the “% inhibition 150 nM” value [1] of the same substance?
Answer: 87%

Question: What about the “% inhibition 300 nM” value [1] of the same substance?
Answer: 92%

Question: And the “% Inhibition of apolipoprotein B mRNA” value [2]?
Answer: 70%

Question: For “301038 (eG*e[5mC]*e[5mC]*eA*eG*d[5mC]*dT*dT*dT*dG*dG*dT*dG*d[5mC]*dA*eG*eG*eT*e[5mC]*e[5mC]; antisense) [compound 301038]”, which “% INHIB (inhibition of human apolipoprotein B mRNA levels)” value [1] is on record?
Answer: 86%

Question: And the “% Inhibition of apolipoprotein B mRNA” value [2]?
Answer: 84%

Question: With “301021 (eG*eG*eT*e[5mC]*e[5mC]*dA*dT*d[5mC]*dG*d[5mC]*d[5mC]*dA*dG*d[5mC]*dT*eG*e[5mC]*eG*eG*eT; antisense) [compound 301021]” as the substance, how does the “% INHIB (inhibition of human apolipoprotein B mRNA levels)” value [1] read?
Answer: 89%

Question: And the “% Inhibition of apolipoprotein B mRNA” value [2]?
Answer: 67%
